The record followed here is patent US10131679B2, “Substituted dihydropyrrolopyrazole compound” (UBE INDUSTRIES, LTD., priority 2014, dated 2018).

One assay addresses T1, CDK7 (Homo sapiens, UniProt P50613).
T1 construct: purchased Carna Biosciences, Inc. 04-108
The experiment in a line: CDK7 enzyme inhibition test. It counts as biochemical. The following applies: Ki=IC50/(1+S/Km); 33P bound to MBP, [γ-33P]ATP, 30° C. for 20 minutes; read-out: Ki value of CDK7 inhibitory activity. The essentials:
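Recombinant CDK7 with MBP substrate and [γ-33P]ATP (500 μM solution, diluted into the mix) in HEPES pH 7.4/DTT/Triton X-100/MgCl2, 20 min at 30 °C. TCA-precipitated 33P-MBP counted by scintillation; IC50 from inhibition, Ki = IC50/(1+S/Km).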

The next assay has as its target T2, PAK4 (Homo sapiens, UniProt O96013).
T2 construct: purchased Invitrogen Corp. PV4212
In words: PAK4 enzyme inhibition test. It counts as biochemical. Conditions: Ki=IC50/(1+S/Km); 33P bound to MBP, [γ-33P]ATP, 30° C. for 20 minutes; read-out: Ki value of PAK4 inhibitory activity. Here is the method:
PAK4 Enzyme Inhibition Test
The preparation of a buffer solution was performed by mixing a trishydroxyaminomethane buffer solution (Tris buffer solution) (pH 7.5), DTT, Triton X-100, MgCl2, ethylene glycol bis(β-aminoethyl ether)-N,N,N′,N′-tetraacetic acid (EGTA), (3-glycerol phosphate, and sodium orthovanadate(V). A 40 μM [γ-^33P]ATP solution was used by diluting a 10 mM ATP solution and a commercially available [γ-^33P]ATP solution (manufactured by PerkinElmer, Inc., Code No. NEG-302H) with the buffer solution. A PAK4 solution was used by diluting commercially available PAK4 (manufactured by Invitrogen Corp., Catalog No. PV4212) with the buffer solution. A substrate solution was used by diluting MBP with the buffer solution. As for the preparation of a reaction solution, the buffer solution, the 40 μM [γ-^33P]ATP solution, the PAK4 solution, and the substrate solution were mixed at 4° C. to obtain a reaction solution.
PAK4 enzyme reaction was performed by adding 5 μL of a test compound solution prepared with 10% DMSO/90% injectable distilled water, and 45 μL of the reaction solution in a 1.5 mL microtube at 4° C. and reacting in the microtube at 30° C. for 20 minutes in a water bath incubator. After the reaction, a 10% aqueous TCA solution was added to each microtube while cooled to 4° C., and mixed to terminate the reaction. The resultant was left standing at 4° C. for 10 minutes and then centrifuged in a centrifuge, and the supernatant was discarded. Next, a 2% aqueous TCA solution was added, mixed, and then centrifuged in a centrifuge, and the supernatant was discarded. This washing operation was performed twice. After the washing, precipitates were dissolved in a 1 N aqueous NaOH solution, and the radioactivity was measured with a liquid scintillation counter.
The calculation of the inhibitory activity of the test compound against PAK4 was performed as a test compound concentration inhibiting 50% of the amount of ^33P bound to MBP (IC50 value) by using EXSUS (version 8.0.0 or version 8.0.1, manufactured by CAC Exicare Corp.).
The calculation of a Ki value was performed according to the following calculation expression. S means the concentration of ATP contained in the reaction solution, and Km means a Michaelis-Menten constant. Ki=IC50/(1+S/Km)

T2 sequence (O96013 whole entry): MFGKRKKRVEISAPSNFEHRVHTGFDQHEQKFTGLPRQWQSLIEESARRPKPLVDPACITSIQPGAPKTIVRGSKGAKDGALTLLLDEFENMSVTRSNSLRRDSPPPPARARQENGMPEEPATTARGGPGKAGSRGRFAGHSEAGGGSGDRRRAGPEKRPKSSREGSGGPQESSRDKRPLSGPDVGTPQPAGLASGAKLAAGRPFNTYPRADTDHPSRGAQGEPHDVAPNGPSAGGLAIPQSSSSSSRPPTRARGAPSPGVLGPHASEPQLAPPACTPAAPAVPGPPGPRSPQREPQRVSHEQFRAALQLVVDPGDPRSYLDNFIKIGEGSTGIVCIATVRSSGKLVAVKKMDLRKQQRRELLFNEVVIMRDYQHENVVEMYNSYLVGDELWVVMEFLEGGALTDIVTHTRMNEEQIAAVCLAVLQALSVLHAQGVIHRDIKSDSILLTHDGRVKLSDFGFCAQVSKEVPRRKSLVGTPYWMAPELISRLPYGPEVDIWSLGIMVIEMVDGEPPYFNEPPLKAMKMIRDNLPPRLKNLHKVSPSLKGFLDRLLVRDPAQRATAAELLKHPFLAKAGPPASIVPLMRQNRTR
T1 sequence (P50613 whole entry): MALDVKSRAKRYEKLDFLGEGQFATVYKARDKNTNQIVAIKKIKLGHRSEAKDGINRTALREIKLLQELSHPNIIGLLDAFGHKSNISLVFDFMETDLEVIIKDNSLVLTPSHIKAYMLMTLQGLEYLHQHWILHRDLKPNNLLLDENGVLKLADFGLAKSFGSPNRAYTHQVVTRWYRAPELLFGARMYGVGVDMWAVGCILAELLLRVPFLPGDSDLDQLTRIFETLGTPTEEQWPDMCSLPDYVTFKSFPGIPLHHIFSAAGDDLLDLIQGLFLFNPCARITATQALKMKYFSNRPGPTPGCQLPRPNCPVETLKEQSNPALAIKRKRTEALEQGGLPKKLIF
T1 sequence (P51946 whole entry partner): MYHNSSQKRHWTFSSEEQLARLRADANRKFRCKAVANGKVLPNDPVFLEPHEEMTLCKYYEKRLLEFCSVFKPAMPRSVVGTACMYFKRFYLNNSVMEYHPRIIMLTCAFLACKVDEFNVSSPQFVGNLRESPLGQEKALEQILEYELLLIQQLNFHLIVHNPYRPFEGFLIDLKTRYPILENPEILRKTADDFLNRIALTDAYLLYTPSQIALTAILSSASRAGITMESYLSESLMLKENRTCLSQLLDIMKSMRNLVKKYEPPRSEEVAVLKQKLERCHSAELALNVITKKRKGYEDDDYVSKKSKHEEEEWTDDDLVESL
T1 sequence (P51948 whole entry partner): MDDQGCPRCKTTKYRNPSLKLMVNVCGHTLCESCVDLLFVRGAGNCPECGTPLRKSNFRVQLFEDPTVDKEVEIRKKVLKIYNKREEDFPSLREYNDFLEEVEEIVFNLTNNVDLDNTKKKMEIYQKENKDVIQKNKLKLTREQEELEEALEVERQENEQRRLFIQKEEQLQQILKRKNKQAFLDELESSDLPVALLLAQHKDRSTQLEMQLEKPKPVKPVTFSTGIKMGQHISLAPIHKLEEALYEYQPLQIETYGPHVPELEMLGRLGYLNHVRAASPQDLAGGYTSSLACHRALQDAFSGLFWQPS

For orientation: Ki means a dissociation constant, usually derived from enzyme kinetics or from competition with a known ligand. In the case of `CC(C)[C@@H](CO)NC(=O)N1Cc2c(NC(=O)C3([Si](C)(C)C)CCC3)n[nH]c2C1(C)C` [IV-475, (S)—N-(1-Hydroxy-3-methylbutan-2-yl)-6,6-dimethyl-3-[1-(trimethylsilyl)cyclobutanecarboxamido]-4,6-dihydropyrrolo[3,4-c]pyrazole-5(1H)-carboxamide], the values for the inhibition constant (Ki) on CDK7 and at PAK4 were ≤ 50 nM and ≥ 500 nM, respectively.

With `CC[Si](C)(C)C1(C(=O)Nc2n[nH]c3c2CN(C(=O)N[C@H](CO)c2ccccc2)C3(C)C)CCC1` [IV-117, (S)-3-[1-(Ethyldimethylsilyl)cyclobutanecarboxamido]-N-(2-hydroxy-1-phenylethyl)-6,6-dimethyl-4,6-dihydropyrrolo[3,4-c]pyrazole-5(1H)-carboxamide], the Ki on CDK7 was ≤ 50 nM; on PAK4, ≥ 500 nM.

Regarding `CC1(C)c2[nH]nc(NC(=O)C3([Si](C)(C)C)CCC3)c2CN1C(=O)C(CO)c1ccccc1` (centres unmarked) [IV-632, N-[5-(3-Hydroxy-2-phenylpropanoyl)-6,6-dimethyl-1,4,5,6-tetrahydropyrrolo[3,4-c]pyrazol-3-yl]-1-(trimethylsilyl)cyclobutanecarboxamide], the values for the Ki on CDK7 and on PAK4 were ≤ 50 nM and ≥ 500 nM, respectively.

Turning to `CCCO[C@@H](C(=O)N1Cc2c(NC(=O)C3([Si](C)(C)C)CCC3)n[nH]c2C1(C)C)c1ccccc1` [IV-1196, (R)—N-[6,6-Dimethyl-5-(2-phenyl-2-propoxyacetyl)-1,4,5,6-tetrahydropyrrolo[3,4-c]pyrazol-3-yl]-1-(trimethylsilyl)cyclobutanecarboxamide], the Ki at CDK7 is ≤ 50 nM.

As to `CC1(C)c2[nH]nc(NC(=O)C3([Si](C)(C)C)CCC3)c2CN1C(=O)[C@H](OC1CC1)c1ccccc1` [IV-1208, (R)—N-[5-(2-Cyclopropoxy-2-phenylacetyl)-6,6-dimethyl-1,4,5,6-tetrahydropyrrolo[3,4-c]pyrazol-3-yl]-1-(trimethylsilyl)cyclobutanecarboxamide], the Ki is ≤ 50 nM on CDK7 and ≥ 500 nM at PAK4.

For the compound `CC1(C)c2[nH]nc(NC(=O)C3([Si](C)(C)C)CCC3)c2CN1C(=O)NC(c1ccccc1)C1(CO)CCC1` (centres unmarked) [IV-718, N-{[1-(Hydroxymethyl)cyclobutyl](phenyl)methyl}-6,6-dimethyl-3-[1-(trimethylsilyl)cyclobutanecarboxamido]-4,6-dihydropyrrolo[3,4-c]pyrazole-5(1H)-carboxamide], the Ki at PAK4 was ≥ 500 nM.

For `CC(C)(O)C[C@@H](NC(=O)N1Cc2c(NC(=O)C3([Si](C)(C)C)CCC3)n[nH]c2C1(C)C)c1ccc(F)cc1` [IV-939, (R)—N-[1-(4-Fluorophenyl)-3-hydroxy-3-methylbutyl]-6,6-dimethyl-3-[1-(trimethylsilyl)cyclobutanecarboxamido]-4,6-dihydropyrrolo[3,4-c]pyrazole-5(1H)-carboxamide], at CDK7, the Ki was ≤ 50 nM.

As to `CC(C)(CO)C(NC(=O)N1Cc2c(NC(=O)C3([Si](C)(C)C)CCC3)n[nH]c2C1(C)C)c1ccc(F)cc1` (centres unmarked) [IV-946, N-[1-(4-Fluorophenyl)-3-hydroxy-2,2-dimethylpropyl]-6,6-dimethyl-3-[1-(trimethylsilyl)cyclobutanecarboxamido]-4,6-dihydropyrrolo[3,4-c]pyrazole-5(1H)-carboxamide], the inhibition constant Ki on PAK4 was ≥ 500 nM.

As to `CC1(C)c2[nH]nc(NC(=O)C3([Si](C)(C)C)CCC3)c2CN1C(=O)[C@H](OC(F)(F)F)c1ccccc1` [IV-1184, (R)—N-{6,6-Dimethyl-5-[2-phenyl-2-(trifluoromethoxy)acetyl]-1,4,5,6-tetrahydropyrrolo[3,4-c]pyrazol-3-yl}-1-(trimethylsilyl)cyclobutanecarboxamide], the Ki on PAK4 is ≥ 500 nM.

For the compound `CC(C)(CO)C(NC(=O)N1Cc2c(NC(=O)C3([Si](C)(C)C)CCC3)n[nH]c2C1(C)C)c1cccc(F)c1` (centres unmarked) [IV-918, N-[1-(3-Fluorophenyl)-3-hydroxy-2,2-dimethylpropyl]-6,6-dimethyl-3-[1-(trimethylsilyl)cyclobutanecarboxamido]-4,6-dihydropyrrolo[3,4-c]pyrazole-5(1H)-carboxamide], the Ki at PAK4 is ≥ 500 nM.
